Results published in US6964975B2, “Isoxazole and thiazole compounds and use thereof as medicine” (Kirin Beer Kabushiki Kaisha, priority 2000, dated 2005).
pIC50: −log10 of the molar value.

Key:
human EDG-2 = molecular target: T1, human EDG-2 (Homo sapiens, UniProt Q92633); assay: Inhibitory activity on LPA-induced elevation of intracellular Ca2+ level; assay type: cell-based; conditions: 50% inhibition of elevation of intracellular Ca2+ level by LPA, human EDG-2/HepG2 cells, fura-2
T1 construct: cDNA of the cloned human EDG-2 was introduced into pEFneo, which is an animal expression vector; expressed in transfected cells; host or cells: HepG2
T1 sequence (Q92633 whole entry): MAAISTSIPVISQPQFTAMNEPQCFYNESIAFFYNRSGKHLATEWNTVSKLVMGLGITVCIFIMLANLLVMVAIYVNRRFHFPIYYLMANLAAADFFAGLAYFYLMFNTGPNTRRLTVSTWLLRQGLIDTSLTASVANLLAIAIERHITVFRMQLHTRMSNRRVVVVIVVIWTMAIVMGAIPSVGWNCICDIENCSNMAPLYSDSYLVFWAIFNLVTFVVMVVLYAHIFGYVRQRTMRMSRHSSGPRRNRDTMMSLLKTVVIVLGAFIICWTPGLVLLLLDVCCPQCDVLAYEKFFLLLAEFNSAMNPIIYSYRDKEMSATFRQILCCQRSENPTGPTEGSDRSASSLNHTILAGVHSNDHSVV
From the text: (§1) The human EDG-2 expression plasmid was introduced into HepG2 cells by electroporation. After the introduction, culturing was continued while exchanging selective media every 3 to 4 days, thereby obtaining an expressed colony. Regarding these cells, Ca-influx and cell-proliferation by LPA, level of [^3H] LPA binding and the like were inspected to select a cell line which highly expresses human EDG-2 (human EDG-2/HepG2).
Human EDG-2/HepG2 cells were washed and then suspended in 0.1% BSA (bovine serum albumin)-containing HEPES buffer. A fluorescent indicator, fura-2/AM (Wako Pure Chemical Industries, Ltd.), was added, and the mixture was shaken at room temperature for 45 minutes so that the indicator is included in the cell. Cells were washed again and then suspended in 0.1% BSA-containing HEPES buffer, and intracellular Ca^2+ level was assayed using FDSS2000 (Hamamatsu Photonics). […] Each test compound was added to the cell suspension followed by the addition of LPA, thereby examining the inhibitory activity of the test compound on the function of LPA for elevating the intracellular Ca level. […] The lower the IC50 value, the higher the antagonistic activity on the LPA receptor.

Human EDG-2/HepG2 cells = assay: Inhibitory activity on LPA-accelerated [3H] thymidine incorporation (cell proliferation); assay type: cell-based; conditions: 50% inhibition of LPA-induced increase of [3H] thymidine incorporation
From the text: as §1
Human EDG-2/HepG2 cells suspended in 10% bovine serum-containing DMEM (Dulbecco's modified eagle medium) were plated on a 96-well plate and, on the next day, the medium was exchanged with serum-free DMEM. 24 hours later, the medium was exchanged with DMEM containing LPA or DMEM containing no LPA, cells were cultured for further 16 hours, and [^3H] thymidine was then added. After culturing for 8 hours subsequent to the addition of [^3H] thymidine, cells were washed with PBS (phosphate-buffered saline), and the amount of [^3H] thymidine incorporated into the cells were assayed by Betaplate filter counter system (Amersham Pharmacia Biotech). The difference between the amount of [^3H] thymidine incorporated in the LPA-added well and the amount of [^3H] thymidine incorporated in the well containing no LPA represents the amount of [^3H] thymidine incorporation accelerated by LPA. […] The test compounds were added immediately before the LPA addition.

Structure (SMILES)	pIC50 (human EDG-2)	pIC50 (Human EDG-2/HepG2 cells)
CCc1noc(-c2ccc(CSCCC(=O)OC)cc2)c1NC(=O)OC(C)c1ccccc1Cl (centres unmarked) [Compound 146]	5.00 to 5.52	6.52 to 7.52
COC(=O)CS(=O)(=O)Cc1ccc(-c2onc(C)c2NC(=O)OC(C)c2ccccc2Cl)cc1 (centres unmarked) [Compound 133]	5.00	6.52 to 7.00
C=CCSCc1cccc(-c2onc(C)c2NC(=O)OC(C)c2ccccc2Cl)c1 (centres unmarked) [Compound 141, 1-(2-Chlorophenyl)ethyl N-(5-{3-[(allylsulfanyl)methyl]phenyl}-3-methyl-4-isoxazolyl)-carbamate]	5.00 to 5.52	6.00 to 6.52
COC(=O)CCSCc1ccc(-c2onc(C)c2NC(=O)OC(C)c2ccccc2F)cc1 (centres unmarked) [Compound 156, Methyl 3-({4-[4-({[1-(2-fluorophenyl)ethoxy]carbonyl}amino)-3-methyl-5-isoxazolyl]-benzyl}-sulfanyl)propanoate]	5.00	6.00 to 6.52
CCc1noc(-c2ccc(CSCC(=O)OC)cc2)c1NC(=O)OC(C)c1ccccc1Cl (centres unmarked) [Compound 153, Methyl 2-({4-[4-({[1-(2-chlorophenyl)ethoxy]carbonyl}amino)-3-ethyl-5-isoxazolyl]benzyl}-sulfanyl)acetate]	5.00 to 5.52	6.52
Cc1noc(-c2ccc(CSCc3ccco3)cc2)c1NC(=O)OC(C)c1ccccc1Cl (centres unmarked) [Compound 107, 1-(2-Chlorophenyl)ethyl N-[5-(4-{[(2-furylmethyl)sulfanyl]methyl}phenyl)-3-methyl-4-isoxazolyl]carbamate]	5.00 to 5.52	7.00 to 7.52
COC(=O)CSCc1ccc(-c2onc(C)c2NC(=O)OC(C)c2ccccc2Cl)cc1 (centres unmarked) [Compound 118, Methyl 2-({4-[4-({[1-(2-chlorophenyl)ethoxy]carbonyl}-amino)-3-methyl-5-isoxazolyl]-benzyl}-sulfanyl)acetate]	5.52 to 6.00	6.52 to 7.00
Cc1noc(-c2ccc(CSc3nc[nH]n3)cc2)c1NC(=O)OC(C)c1ccccc1Cl (centres unmarked) [Compound 136, 1-(2-Chlorophenyl)ethyl N-(3-methyl-5-{4-[(1H-1,2,4-triazol-3-ylsulfanyl)methyl]-phenyl}-4-isoxazolyl)carbamate]	5.00 to 5.52	6.52 to 7.00
Cc1noc(-c2cccc(CSCCc3ccccc3)c2)c1NC(=O)OC(C)c1ccccc1Cl (centres unmarked) [Compound 142, 1-(2-Chlorophenyl)ethyl N-(3-methyl-5-{3-[(phenethylsulfanyl)methyl]phenyl}-4-isoxazolyl)-carbamate]	5.00 to 5.52	6.52
Cc1noc(-c2ccc(CSc3nnnn3C)cc2)c1NC(=O)OC(C)c1ccccc1Cl (centres unmarked) [Compound 137, 1-(2-Chlorophenyl)ethyl N-[3-methyl-5-(4-{[(1-methyl-1H-1,2,3,4-tetrazol-5-yl)-sulfanyl]methyl}phenyl)-4-isoxazolyl]carbamate]	5.00 to 5.52	6.52 to 7.00
CCOC(=O)COCc1ccc(-c2onc(C)c2NC(=O)OC(c2ccccc2)C(F)(F)F)cc1 (centres unmarked) [Compound 169, Ethyl 2-{[4-(3-methyl-4-{[(2,2,2-trifluoro-1-phenylethoxy)carbonyl]amino}-5-isoxazolyl)-benzyl]oxy}acetate]	5.00 to 5.52	5.52 to 6.00
COC(=O)CSCc1cccc(-c2onc(C)c2NC(=O)OC(C)c2ccccc2Cl)c1 (centres unmarked) [Compound 130, Methyl 2-({3-[4-({[1-(2-chlorophenyl)ethoxy]carbonyl}amino)-3-methyl-5-isoxazolyl]-benzyl}sulfanyl)acetate]	5.00 to 5.52	6.00 to 6.52
Cc1noc(-c2ccc(CSCCNC(=O)c3ccc[nH]3)cc2)c1NC(=O)OC(C)c1ccccc1Cl (centres unmarked) [Compound 149, 1-(2-Chlorophenyl)ethyl N-(3-methyl-5-{4-[({2-[(1H-2-pyrrolylcarbonyl)amino]ethyl}-sulfanyl)methyl]phenyl}-4-isoxazolyl)carbamate]	4.52 to 5.00	7.52
CCCCSCc1ccc(-c2onc(C)c2NC(=O)OC(C)c2ccccc2Cl)cc1 (centres unmarked) [Compound 125, 1-(2-Chlorophenyl)ethyl N-(5-{4-[(butylsulfanyl)methyl]phenyl)-3-methyl-4-isoxazolyl)-carbamate]	4.52 to 5.00	6.52 to 7.00
Cc1noc(-c2cccc(Cl)c2)c1NC(=O)OC(C)c1ccccc1Cl (centres unmarked) [Compound 39, 1-(2-Chlorophenyl)ethyl N-[5-(3-chlorophenyl)-3-methyl-4-isoxazolyl]carbamate]	5.00	–
Cc1noc(-c2cccc(CSCCO)c2)c1NC(=O)OC(C)c1ccccc1Cl (centres unmarked) [Compound 131, 1-(2-Chlorophenyl)ethyl N-[5-(3-{[(2-hydroxyethyl)sulfanyl]methyl}phenyl)-3-methyl-4-isoxazolyl]carbamate]	5.52	–
CCCCCOC(=O)Nc1c(-c2ccccc2)noc1C [Compound 99, Pentyl N-(5-methyl-3-phenyl-4-isoxazolyl)carbamate]	4.00 to 4.52	–

Structure (SMILES)	pIC50 (human EDG-2)	pIC50 (Human EDG-2/HepG2 cells)
Cc1onc(-c2ccccc2)c1NC(=O)O[C@H](C)c1ccccc1 [Compound 9, (1R)-1-Phenylethyl N-(5-methyl-3-phenyl-4-isoxazolyl)carbamate]	4.52 to 5.00	–
Cc1noc(-c2ccc(CCl)cc2)c1NC(=O)OC(C)c1ccccc1F (centres unmarked) [Compound 155, 1-(2-Fluorophenyl)ethyl N-{5-[4-(chloromethyl)phenyl]-3-methyl-4-isoxazolyl}carbamate]	5.00 to 5.52	–
Cc1ccccc1CCOC(=O)Nc1c(-c2ccccc2)noc1C [Compound 95, 2-Methylphenethyl N-(5-methyl-3-phenyl-4-isoxazolyl)carbamate]	4.00 to 4.52	–
Cc1noc(-c2cccc(F)c2)c1NC(=O)OC(C)c1ccccc1Cl (centres unmarked) [Compound 30, 1-(2-Chlorophenyl)ethyl N-[5-(3-fluorophenyl)-3-methyl-4-isoxazolyl]carbamate]	5.00 to 5.52	–
Cc1noc(-c2ccc(F)cc2)c1NC(=O)OC(C)c1ccccc1 (centres unmarked) [Compound 40, 1-Phenylethyl N-[5-(4-fluorophenyl)-3-methyl-4-isoxazolyl]carbamate]	5.00	–
Cc1ccc(-c2onc(C)c2NC(=O)OC(C)c2ccccc2Cl)cc1 (centres unmarked) [Compound 38, 1-(2-Chlorophenyl)ethyl N-[3-methyl-5-(4-methylphenyl)-4-isoxazolyl]carbamate]	5.00	–
COCc1ccc(-c2onc(C)c2NC(=O)OC(C)c2ccccc2Cl)cc1 (centres unmarked) [Compound 87, 1-(2-Chlorophenyl)ethyl N-[5-[4-(methoxymethyl)phenyl]-3-methyl-4-isoxazolyl]carbamate]	5.52	–
Cc1noc(-c2ccc(Cl)nc2)c1NC(=O)OC(C)c1ccccc1Cl (centres unmarked) [Compound 63, 1-(2-Chlorophenyl)ethyl N-[5-(6-chloro-3-pyridyl)-3-methyl-4-isoxazolyl]carbamate]	4.52	–
Cc1noc(-c2ccco2)c1NC(=O)OC(C)c1ccccc1 (centres unmarked) [Compound 31, 1-Phenylethyl N-[5-(2-furyl)-3-methyl-4-isoxazolyl]carbamate]	5.00	–
Cc1noc(-c2ccccc2F)c1NC(=O)OC(C)c1ccccc1Cl (centres unmarked) [Compound 43, 1-(2-Chlorophenyl)ethyl N-[5-(2-fluorophenyl)-3-methyl-4-isoxazolyl]carbamate]	5.00 to 5.52	–
Cc1noc(-c2ccc(COCc3ccco3)cc2)c1NC(=O)OC(C)c1ccccc1Cl (centres unmarked) [Compound 84, 1-(2-Chlorophenyl)ethyl N-(5-[4-[(2-furylmethoxy)methyl]phenyl]-3-methyl-4-isoxazolyl)carbamate]	5.00 to 5.52	–
Cc1noc(-c2ccc(C#N)cc2)c1NC(=O)OC(c1ccccc1)C(F)(F)F (centres unmarked) [Compound 86, 2,2,2-Trifluoro-1-phenylethyl N-[5-(4-cyanophenyl)-3-methyl-4-isoxazolyl]carbamate]	5.52 to 6.00	–
CCCCc1ccc(-c2onc(C)c2NC(=O)OC(C)c2ccccc2Cl)cc1 (centres unmarked) [Compound 65, 1-(2-Chlorophenyl)ethyl N-[5-(4-butylphenyl)-3-methyl-4-isoxazolyl]carbamate]	4.52 to 5.00	–
Cc1noc(-c2ccc(C#N)cc2)c1NC(=O)OC(C)c1ccccc1 (centres unmarked) [Compound 46, 1-Phenylethyl N-[5-(4-cyanophenyl)-3-methyl-4-isoxazolyl]carbamate]	5.00 to 5.52	–
Cc1noc(-c2ccc(COc3ccccc3)cc2)c1NC(=O)OC(C)c1ccccc1Cl (centres unmarked) [Compound 79, 1-(2-Chlorophenyl)ethyl N-[3-methyl-5-[4-(phenoxymethyl)phenyl]-4-isoxazolyl]carbamate]	5.52	–
Cc1cccc(-c2onc(C)c2NC(=O)OC(C)c2ccccc2Cl)c1 (centres unmarked) [Compound 28, 1-(2-Chlorophenyl)ethyl N-[3-methyl-5-(3-methylphenyl)-4-isoxazolyl]carbamate]	4.52 to 5.00	–
